Measured values from ChEMBL document CHEMBL3132769, “Fragment growing to retain or alter the selectivity of anchored kinase hinge-binding fragments” (Medchemcomm, 2014).

Assays:
[1] = target: Ribosomal protein S6 kinase alpha-1 (Homo sapiens) (UniProt Q15418); experiment: Inhibition of human full length RSK1 expressed in baculovirus assessed as substrate phosphorylation using fluorescence-labelled peptides as substrate at 8 uM after 90 mins by microfluidic peptide phosphorylation assay
[2] = test system: Fibroblast growth factor receptor 2 (Homo sapiens), P21802 [N549H]; experiment: Inhibition of human FGFR2 N549H mutant catalytic domain expressed in baculovirus assessed as substrate phosphorylation using fluorescence-labelled peptides as substrate at 0.06 uM after 90 mins by microfluidic peptide phosphorylation assay
[3] = target: T1, Serine/threonine-protein kinase BRSK2 (Homo sapiens) (UniProt Q8IWQ3); experiment: Inhibition of human truncated BRSK2 expressed in baculovirus assessed as substrate phosphorylation using fluorescence-labelled peptides as substrate at 0.2 uM after 90 mins by microfluidic peptide phosphorylation assay
T1 sequence (whole entry): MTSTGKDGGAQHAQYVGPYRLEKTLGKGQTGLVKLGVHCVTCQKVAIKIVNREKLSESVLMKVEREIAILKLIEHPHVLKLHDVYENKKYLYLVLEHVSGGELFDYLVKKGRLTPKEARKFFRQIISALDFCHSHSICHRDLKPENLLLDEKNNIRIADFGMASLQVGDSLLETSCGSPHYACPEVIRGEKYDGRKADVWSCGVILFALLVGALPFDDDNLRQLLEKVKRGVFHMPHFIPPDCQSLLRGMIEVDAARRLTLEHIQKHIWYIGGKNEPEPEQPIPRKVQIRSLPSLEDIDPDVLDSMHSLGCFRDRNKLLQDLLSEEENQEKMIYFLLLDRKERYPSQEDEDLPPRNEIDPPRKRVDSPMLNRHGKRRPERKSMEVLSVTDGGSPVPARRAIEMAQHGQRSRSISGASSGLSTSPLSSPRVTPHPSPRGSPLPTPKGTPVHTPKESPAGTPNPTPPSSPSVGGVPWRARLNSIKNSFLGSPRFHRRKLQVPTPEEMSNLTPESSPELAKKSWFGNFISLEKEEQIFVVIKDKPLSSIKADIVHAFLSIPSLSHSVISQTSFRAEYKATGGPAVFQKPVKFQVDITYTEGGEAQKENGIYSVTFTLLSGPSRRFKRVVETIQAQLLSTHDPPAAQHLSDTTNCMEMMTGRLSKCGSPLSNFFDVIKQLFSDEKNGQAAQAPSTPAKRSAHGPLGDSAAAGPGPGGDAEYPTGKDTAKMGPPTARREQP

[4] = target: Casein kinase I isoform delta (Homo sapiens) (UniProt P48730); experiment: Inhibition of human CK1D catalytic domain expressed in Escherichia coli cell assessed as substrate phosphorylation using fluorescence-labelled peptides as substrate at 2 uM after 90 mins by microfluidic peptide phosphorylation assay
[5] = target: T2, Testis-specific serine/threonine-protein kinase 1 (Homo sapiens) (UniProt Q9BXA7); experiment: Inhibition of human full length TSSK1 expressed in baculovirus assessed as substrate phosphorylation using fluorescence-labelled peptides as substrate at 9 uM after 90 mins by microfluidic peptide phosphorylation assay
T2 sequence (whole entry): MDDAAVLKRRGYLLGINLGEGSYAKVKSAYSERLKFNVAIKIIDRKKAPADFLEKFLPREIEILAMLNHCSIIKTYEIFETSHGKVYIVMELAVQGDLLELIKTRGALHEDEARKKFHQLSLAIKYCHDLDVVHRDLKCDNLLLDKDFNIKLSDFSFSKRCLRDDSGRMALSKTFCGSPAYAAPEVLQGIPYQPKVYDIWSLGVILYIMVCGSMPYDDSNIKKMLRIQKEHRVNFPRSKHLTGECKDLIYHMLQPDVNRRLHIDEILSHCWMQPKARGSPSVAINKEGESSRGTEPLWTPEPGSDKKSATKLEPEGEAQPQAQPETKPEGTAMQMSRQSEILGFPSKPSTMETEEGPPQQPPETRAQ

[6] = target: T3, Testis-specific serine/threonine-protein kinase 2 (Homo sapiens) (UniProt Q96PF2); experiment: Inhibition of human full length TSSK2 expressed in baculovirus assessed as substrate phosphorylation using fluorescence-labelled peptides as substrate at 95 uM after 90 mins by microfluidic peptide phosphorylation assay
T3 sequence (whole entry): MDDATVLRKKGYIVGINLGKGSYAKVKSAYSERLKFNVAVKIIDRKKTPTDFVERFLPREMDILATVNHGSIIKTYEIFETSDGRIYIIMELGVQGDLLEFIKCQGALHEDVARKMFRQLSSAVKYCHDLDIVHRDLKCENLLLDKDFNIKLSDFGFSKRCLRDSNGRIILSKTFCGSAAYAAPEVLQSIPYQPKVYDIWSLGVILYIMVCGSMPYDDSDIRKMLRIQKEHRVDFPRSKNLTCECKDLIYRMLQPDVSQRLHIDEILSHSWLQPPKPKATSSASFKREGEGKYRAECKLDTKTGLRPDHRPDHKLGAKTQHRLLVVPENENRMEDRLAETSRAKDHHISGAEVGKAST

[7] = target: T4, Inhibitor of nuclear factor kappa-B kinase subunit beta (Homo sapiens) (UniProt O14920); experiment: Inhibition of human full length IKK beta expressed in baculovirus assessed as substrate phosphorylation using fluorescence-labelled peptides as substrate at 420 uM after 90 mins by microfluidic peptide phosphorylation assay
T4 sequence (whole entry): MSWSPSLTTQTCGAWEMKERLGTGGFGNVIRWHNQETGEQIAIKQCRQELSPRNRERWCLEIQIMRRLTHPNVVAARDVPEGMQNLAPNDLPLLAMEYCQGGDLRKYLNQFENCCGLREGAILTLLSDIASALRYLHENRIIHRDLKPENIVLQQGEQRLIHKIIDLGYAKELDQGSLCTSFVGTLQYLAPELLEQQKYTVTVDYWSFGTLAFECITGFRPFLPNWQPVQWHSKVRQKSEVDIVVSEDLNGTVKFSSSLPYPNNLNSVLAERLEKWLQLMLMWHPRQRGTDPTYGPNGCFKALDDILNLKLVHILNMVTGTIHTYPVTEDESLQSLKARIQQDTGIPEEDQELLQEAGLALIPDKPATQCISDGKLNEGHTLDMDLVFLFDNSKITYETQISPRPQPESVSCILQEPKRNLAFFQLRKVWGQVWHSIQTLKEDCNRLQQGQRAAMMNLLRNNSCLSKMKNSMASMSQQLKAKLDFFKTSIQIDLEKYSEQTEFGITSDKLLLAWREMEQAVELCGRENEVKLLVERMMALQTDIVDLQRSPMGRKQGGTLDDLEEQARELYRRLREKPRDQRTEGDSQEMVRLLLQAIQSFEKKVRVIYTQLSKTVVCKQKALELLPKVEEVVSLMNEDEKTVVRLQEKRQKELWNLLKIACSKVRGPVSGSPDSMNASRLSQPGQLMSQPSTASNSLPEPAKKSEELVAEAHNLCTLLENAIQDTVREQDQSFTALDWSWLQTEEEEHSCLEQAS

[8] = target: Tyrosine-protein kinase HCK (Homo sapiens) (UniProt P08631); experiment: Inhibition of human HCK catalytic domain expressed in baculovirus assessed as substrate phosphorylation using fluorescence-labelled peptides as substrate at 420 uM after 90 mins by microfluidic peptide phosphorylation assay
Chain of Tyrosine-protein kinase HCK (Homo sapiens) (P08631 2-526 limits assumed): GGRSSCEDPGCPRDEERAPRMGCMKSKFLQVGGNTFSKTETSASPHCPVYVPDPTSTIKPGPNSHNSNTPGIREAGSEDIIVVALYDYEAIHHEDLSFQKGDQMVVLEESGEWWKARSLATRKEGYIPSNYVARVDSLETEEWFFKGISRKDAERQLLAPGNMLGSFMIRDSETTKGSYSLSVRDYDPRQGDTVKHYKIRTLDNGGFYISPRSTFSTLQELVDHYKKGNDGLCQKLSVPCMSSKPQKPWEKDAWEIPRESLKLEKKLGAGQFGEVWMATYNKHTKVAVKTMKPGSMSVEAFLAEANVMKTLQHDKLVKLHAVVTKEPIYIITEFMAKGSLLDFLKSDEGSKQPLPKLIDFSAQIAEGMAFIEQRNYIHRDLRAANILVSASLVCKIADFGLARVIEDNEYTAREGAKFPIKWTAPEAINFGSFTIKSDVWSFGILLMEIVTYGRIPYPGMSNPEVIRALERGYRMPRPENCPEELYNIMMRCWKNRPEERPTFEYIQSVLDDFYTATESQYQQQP

Chain of Casein kinase I isoform delta (Homo sapiens) (P48730 whole entry, looked up, the tested form may be a part, canonical isoform): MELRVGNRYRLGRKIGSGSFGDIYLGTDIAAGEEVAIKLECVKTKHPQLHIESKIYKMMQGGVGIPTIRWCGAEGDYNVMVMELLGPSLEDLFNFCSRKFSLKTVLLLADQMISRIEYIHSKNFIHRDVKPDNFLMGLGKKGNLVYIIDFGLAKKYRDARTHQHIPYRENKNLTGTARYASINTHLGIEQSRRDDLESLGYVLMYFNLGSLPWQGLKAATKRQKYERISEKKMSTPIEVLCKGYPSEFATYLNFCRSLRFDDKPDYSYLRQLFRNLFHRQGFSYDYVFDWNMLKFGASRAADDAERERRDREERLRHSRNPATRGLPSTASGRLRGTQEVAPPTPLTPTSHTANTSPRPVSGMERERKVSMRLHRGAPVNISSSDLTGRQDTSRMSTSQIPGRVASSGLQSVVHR
Chain of Fibroblast growth factor receptor 2 (Homo sapiens), P21802 [N549H] (P21802 whole entry N549H, the tested form may be a part): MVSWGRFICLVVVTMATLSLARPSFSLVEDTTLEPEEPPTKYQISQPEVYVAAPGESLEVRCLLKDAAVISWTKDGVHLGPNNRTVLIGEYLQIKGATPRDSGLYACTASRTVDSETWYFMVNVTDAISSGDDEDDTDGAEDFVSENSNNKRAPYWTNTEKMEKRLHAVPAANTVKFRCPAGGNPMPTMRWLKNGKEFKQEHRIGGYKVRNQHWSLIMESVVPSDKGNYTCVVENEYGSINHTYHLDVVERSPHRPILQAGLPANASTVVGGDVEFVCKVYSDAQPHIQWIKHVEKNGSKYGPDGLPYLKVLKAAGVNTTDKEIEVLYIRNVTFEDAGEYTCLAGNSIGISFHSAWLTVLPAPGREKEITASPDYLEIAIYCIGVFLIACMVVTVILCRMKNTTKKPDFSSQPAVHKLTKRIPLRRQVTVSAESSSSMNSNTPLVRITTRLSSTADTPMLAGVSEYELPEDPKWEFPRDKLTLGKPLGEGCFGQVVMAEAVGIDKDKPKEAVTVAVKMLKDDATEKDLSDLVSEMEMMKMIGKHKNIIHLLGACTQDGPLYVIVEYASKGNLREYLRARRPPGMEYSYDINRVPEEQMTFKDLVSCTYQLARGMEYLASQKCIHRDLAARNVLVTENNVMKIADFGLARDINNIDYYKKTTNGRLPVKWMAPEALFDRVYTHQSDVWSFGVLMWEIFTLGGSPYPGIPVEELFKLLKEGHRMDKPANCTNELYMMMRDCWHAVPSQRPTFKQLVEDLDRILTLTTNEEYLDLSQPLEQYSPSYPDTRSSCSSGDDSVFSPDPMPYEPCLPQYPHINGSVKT
Chain of Ribosomal protein S6 kinase alpha-1 (Homo sapiens) (Q15418 whole entry, the tested form may be a part): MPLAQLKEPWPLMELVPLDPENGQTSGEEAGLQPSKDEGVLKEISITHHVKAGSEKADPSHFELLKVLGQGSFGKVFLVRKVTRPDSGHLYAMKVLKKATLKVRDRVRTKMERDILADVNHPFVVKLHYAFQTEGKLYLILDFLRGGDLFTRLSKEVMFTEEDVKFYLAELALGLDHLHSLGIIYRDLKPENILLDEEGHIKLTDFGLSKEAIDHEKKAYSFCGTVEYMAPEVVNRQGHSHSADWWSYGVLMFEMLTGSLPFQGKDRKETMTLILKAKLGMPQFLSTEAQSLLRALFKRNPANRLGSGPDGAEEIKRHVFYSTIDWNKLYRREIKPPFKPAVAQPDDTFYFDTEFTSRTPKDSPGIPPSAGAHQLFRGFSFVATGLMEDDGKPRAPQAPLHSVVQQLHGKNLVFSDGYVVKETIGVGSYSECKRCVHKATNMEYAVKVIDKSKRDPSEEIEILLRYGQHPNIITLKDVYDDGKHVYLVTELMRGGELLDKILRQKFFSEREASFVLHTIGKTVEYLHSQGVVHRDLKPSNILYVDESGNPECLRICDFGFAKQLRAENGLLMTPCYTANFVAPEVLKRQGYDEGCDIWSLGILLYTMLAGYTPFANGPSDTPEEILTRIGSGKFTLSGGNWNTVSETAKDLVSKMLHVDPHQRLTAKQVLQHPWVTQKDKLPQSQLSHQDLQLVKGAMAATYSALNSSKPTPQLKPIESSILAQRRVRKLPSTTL

NCC1CCN(c2ncnc3[nH]ccc23)CC1
inhibition [1]: 11.5%

NC1(Cc2ccc(Cl)cc2)CCN(c2ncnc3[nH]ccc23)CC1
inhibition [2]: 5%

Clc1ccc(C2(c3ccc(-c4ncnc5[nH]cnc45)cc3)CCNCC2)cc1
inhibition [3]: 13%

NC1CCN(c2ncnc3[nH]ccc23)CC1
inhibition [4]: 0%

NCC1CN(c2ncnc3[nH]c4cnccc4c23)CCO1 (stereo not drawn)
inhibition [5]: 41.5%

NCCc1ccc(-c2ncnc3[nH]cnc23)cc1
inhibition [6]: 23.5%

c1nc(N2CCOCC2)c2nc[nH]c2n1
inhibition [7]: 87% | inhibition [8]: 69.5%
